Laboratory results as given in article PMC7894522, “Structure Based Design of Bicyclic Peptide Inhibitors of RbAp48” (Angewandte Chemie (International Ed. in English), 2020).
Starred links: 1 amine or outer side, 2 acyl side, 3 side chain; linkers in the order of their positions; H or OH if unused. Positions of bridges follow the written chain, without caps; N, C: chain ends. Residues, ends and D or L forms follow the SMILES beside them. TBMB = c1c(C[*:1])cc(C[*:3])cc1C[*:2]

Assays:
[1] = Peptide stability in MDA-MB-231 whole cell lysate; format: in vitro ADME; conditions: human, 37°C, HPLC, duplicate
Experimental: To investigate whether the cyclization strategy influences the stability of the peptides we incubated 3, 8 and 33 in MDA‐MB‐231 cell lysate. […]
Fluorescence polarization assay […]
Isothermal Titration Calorimetry […]
Peptide stability was tested in whole cell lysate prepared from MDA-MB-231 cells using the freeze-thaw method. Peptides were dissolved in lysate (normalized to 5mg/ml protein using PBS) at 600 µM and incubated at 37°C. Samples were taken at different time points and mixed with an equal amount of MeOH containing 0.05 mg/ml ethylparaben as an i nternal standard. The samples were mixed and kept on ice for 15 minutes before centrifugation at 14000 rpm at 4 °C for 10 min. The supernatant was carefully removed and analyzed by HPLC. Peptide peaks were integrated and surface areas compared […]
Measurements were performed in duplicate.

RbAp48 = RbAp48 (Homo sapiens, UniProt Q09028); assay: Competitive fluorescence polarization (FP) assay using complex of peptide 1 and RbAp48; format: binding; design: Full length RbAp48 was cloned; His tag followed by 3C cleavage site (N, cleaved yes); made in house; host or cells: Sf9 insect cells; conditions: Table 1; competitive FP, tracer peptide 1 1 nM, RbAp48 15 nM, 20 mM Tris-HCl, 150 mM NaCl, 0.01% Tween-20, pH 7.5, 30 min room temperature; lower limit set by 15 nM protein; read-out: IC50
Outline: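 Sf9-expressed full-length RbAp48 (tag cleaved), 15 nM, displaced from 1 nM fluorescent peptide tracer in 20 mM Tris-HCl pH 7.5, 150 mM NaCl, 0.01% Tween-20. Read by FP (ex 485/em 535 nm) after 30 min at room temperature.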

Chain of RbAp48 (Q09028 whole entry): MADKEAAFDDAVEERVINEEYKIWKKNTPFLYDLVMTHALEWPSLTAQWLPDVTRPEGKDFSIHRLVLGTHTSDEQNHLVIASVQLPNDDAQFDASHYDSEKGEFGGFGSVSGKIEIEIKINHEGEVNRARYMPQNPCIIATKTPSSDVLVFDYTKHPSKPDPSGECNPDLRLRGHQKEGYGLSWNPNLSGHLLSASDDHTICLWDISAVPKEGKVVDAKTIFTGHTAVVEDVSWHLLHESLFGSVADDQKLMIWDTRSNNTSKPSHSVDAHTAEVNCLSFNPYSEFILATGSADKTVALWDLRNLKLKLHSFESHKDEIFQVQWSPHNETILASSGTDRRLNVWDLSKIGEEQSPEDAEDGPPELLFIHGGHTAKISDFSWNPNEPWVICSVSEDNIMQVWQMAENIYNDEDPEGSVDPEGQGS

half-life at 600 µM ([1]; MDA-MB-231 whole cell lysate (freeze-thaw), 5 mg/ml protein in PBS, peptide 600 µM, read-out: t 1/2 (half-life)): 1.57 h
remaining at 1 h, 600 µM ([1]; T 60 min, MDA-MB-231 whole cell lysate 5 mg/ml protein, 600 µM, read-out: % left): 57.8%
remaining at 2 h, 600 µM ([1]; T 120 min, MDA-MB-231 whole cell lysate 5 mg/ml protein, 600 µM, read-out: % left): 41.4%
remaining at 4 h, 600 µM ([1]; T 240 min, MDA-MB-231 whole cell lysate 5 mg/ml protein, 600 µM, read-out: % left): 0%
IC50 (RbAp48): 12.3 ± 2 nM
SMILES: CC(=O)N[C@H]1CSCc2cc3cc(c2)CSC[C@@H](C(=O)N[C@@H](C)C(N)=O)NC(=O)[C@@H]2CCCN2C(=O)[C@H](CCCCN)NC(=O)[C@H](Cc2ccc(O)cc2)NC(=O)[C@@H]2CCCN2C(=O)[C@H](CCCNC(=N)N)NC(=O)[C@H](CCCNC(=N)N)NC(=O)[C@H](C)NC(=O)[C@H](CSC3)NC(=O)[C@H](CCCNC(=N)N)NC(=O)[C@H](CCCCN)NC(=O)[C@H]([C@@H](C)O)NC1=O [Peptide 33] (Ac-CTKRCARRPYKPCA-NH2; linker 1-5-13 via TBMB)
